Laboratory results reported in ChEMBL document CHEMBL1130223 (J Med Chem, 1997).

These molecules were tested on NG108-15 (assay: Effective concentration for uptake of [14C]guanidinium on NG108-15 cells). Settings: Murinae.
Type: functional, cell-based
Molecule `CN1CCN(c2nc3c(F)cccc3n3cccc23)CC1` has an EC50 of 4.7 nM.
Molecule `C=CCN1CCN(c2nc3ccccc3n3cccc23)CC1` has an EC50 of 8.2 nM.
In the case of `CCN1CCN(c2nc3ccccc3n3cccc23)CC1`, the EC50 is reported as 8 nM.
Molecule `CCCN1CCN(c2nc3cccc(F)c3n3cccc23)CC1` has an EC50 of 73 nM.
Molecule `C=CCN1CCN(c2nc3cc(F)ccc3n3cccc23)CC1` has an EC50 of 76 nM.
`CCCN1CCN(c2nc3cc(F)ccc3n3cccc23)CC1` was tested, and the EC50 was 580 nM.
Molecule `C=CCN1CCN(c2nc3cccc(F)c3n3cccc23)CC1` has an EC50 of 30 nM.

The molecules below were run against T1, Serotonin 3 (5-HT3) receptor (Rattus norvegicus, UniProt P35563+Q9JJ16) (assay: Inhibition of [3H]BRL-43694 binding to 5-hydroxytryptamine 3 receptor of rat cortical homogenate.). Settings: not given.
T1 sequence (P35563 whole entry): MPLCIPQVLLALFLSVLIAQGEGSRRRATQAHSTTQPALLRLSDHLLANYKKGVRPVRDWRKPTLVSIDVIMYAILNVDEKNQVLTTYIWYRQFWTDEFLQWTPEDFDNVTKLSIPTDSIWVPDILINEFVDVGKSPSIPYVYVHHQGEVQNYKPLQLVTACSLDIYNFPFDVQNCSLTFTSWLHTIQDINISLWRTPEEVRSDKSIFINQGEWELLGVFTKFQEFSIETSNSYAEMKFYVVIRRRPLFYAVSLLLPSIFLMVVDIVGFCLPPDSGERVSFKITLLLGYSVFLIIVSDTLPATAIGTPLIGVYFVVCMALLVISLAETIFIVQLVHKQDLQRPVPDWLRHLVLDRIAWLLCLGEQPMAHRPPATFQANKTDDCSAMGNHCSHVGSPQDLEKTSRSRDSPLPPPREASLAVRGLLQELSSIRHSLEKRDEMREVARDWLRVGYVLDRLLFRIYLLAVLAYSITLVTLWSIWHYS
T1 sequence (Q9JJ16 whole entry): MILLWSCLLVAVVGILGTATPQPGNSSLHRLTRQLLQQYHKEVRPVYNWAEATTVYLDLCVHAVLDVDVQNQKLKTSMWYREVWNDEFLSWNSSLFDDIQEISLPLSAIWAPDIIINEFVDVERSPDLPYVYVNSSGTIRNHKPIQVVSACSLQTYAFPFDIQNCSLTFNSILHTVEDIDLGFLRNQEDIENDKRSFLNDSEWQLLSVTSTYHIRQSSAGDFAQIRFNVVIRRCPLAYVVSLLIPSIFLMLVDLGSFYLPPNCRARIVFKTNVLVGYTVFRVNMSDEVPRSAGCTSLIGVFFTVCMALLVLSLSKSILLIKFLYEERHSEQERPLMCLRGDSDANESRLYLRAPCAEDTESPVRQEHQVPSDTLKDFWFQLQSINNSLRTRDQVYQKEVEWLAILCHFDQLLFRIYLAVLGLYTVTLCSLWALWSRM
Molecule `CN1CCN(c2nc3c(F)cccc3n3cccc23)CC1` has an IC50 of 9.5 nM.
`C=CCN1CCN(c2nc3ccccc3n3cccc23)CC1` was tested, and the IC50 was 11 nM.
Molecule `CCN1CCN(c2nc3ccccc3n3cccc23)CC1` has an IC50 of 9 nM.
`CCCN1CCN(c2nc3cccc(F)c3n3cccc23)CC1` showed an IC50 of 82 nM.
In the case of `C=CCN1CCN(c2nc3cc(F)ccc3n3cccc23)CC1`, the IC50 is reported as 22 nM.
With `CCCN1CCN(c2nc3cc(F)ccc3n3cccc23)CC1` the IC50 was 88 nM.
With `C=CCN1CCN(c2nc3cccc(F)c3n3cccc23)CC1` the IC50 was 28 nM.
Molecule `Cc1[nH]c2ccc(O)cc2c1CCN` has an IC50 of 779 nM.

Each molecule was assayed against T2, Serotonin 3 (5-HT3) receptor (Rattus norvegicus) (UniProt P35563+Q9JJ16) (assay: The stimulation of cardiac 5-HT3 receptors evaluated by using von Bezold-Jarisch reflex test in urethane-anesthetized rats; pure antagonist). Settings: filed as antagonist.
Type: functional
With `CCN1CCN(c2nc3ccccc3n3cccc23)CC1` the Behavior was “Antagonist”.

These molecules were tested against T2, Serotonin 3 (5-HT3) receptor (Rattus norvegicus) (assay: Dose required to stimulate cardiac 5-HT3 receptors evaluated by using von Bezold-Jarisch reflex test in urethane-anesthetized rats after intravenous administration). Settings: not given.
Type: functional, organism-based
`CN1CCN(c2nc3c(F)cccc3n3cccc23)CC1` gave an ID50 of 0.12 mg/kg.
`C=CCN1CCN(c2nc3ccccc3n3cccc23)CC1` gave an ID50 of 0.18 mg/kg.
`CCN1CCN(c2nc3ccccc3n3cccc23)CC1` gave an ID50 of 0.1 mg/kg.
Molecule `CCCN1CCN(c2nc3cccc(F)c3n3cccc23)CC1` has an ID50 of 0.3 mg/kg.
`C=CCN1CCN(c2nc3cc(F)ccc3n3cccc23)CC1` was tested, and the ID50 was 0.1 mg/kg.
Work on `CCCN1CCN(c2nc3cc(F)ccc3n3cccc23)CC1` yielded an ID50 of 0.2 mg/kg.
`C=CCN1CCN(c2nc3cccc(F)c3n3cccc23)CC1` showed an ID50 of 0.075 mg/kg.

Each molecule was assayed against T2, Serotonin 3 (5-HT3) receptor (Rattus norvegicus) (assay: The stimulation of cardiac 5-HT3 receptors evaluated by using von Bezold-Jarisch reflex test in urethane-anesthetized rats; partial agonist). Settings: filed as partial agonist.
Type: functional
`C=CCN1CCN(c2nc3ccccc3n3cccc23)CC1` was tested, and the Behavior was “Partial agonist”.
In the case of `C=CCN1CCN(c2nc3cc(F)ccc3n3cccc23)CC1`, the Behavior is reported as “Partial agonist”.
In the case of `CCCN1CCN(c2nc3cc(F)ccc3n3cccc23)CC1`, the Behavior is reported as “Partial agonist”.

The molecules below were run on NG108-15 (assay: Agonist/antagonist activity by observing the uptake of [14C]guanidinium, on the neuroblastoma-glioma hybrid NG108-15 cells; pure agonist). Settings: filed as agonist.
Type: functional, cell-based
`CN1CCN(c2nc3c(F)cccc3n3cccc23)CC1` was tested, and the Efficacy was “Agonist”.
In the case of `C=CCN1CCN(c2nc3ccccc3n3cccc23)CC1`, the Efficacy is reported as “Agonist”.
For `CCN1CCN(c2nc3ccccc3n3cccc23)CC1`, the Efficacy was “Agonist”.
In the case of `CCCN1CCN(c2nc3cccc(F)c3n3cccc23)CC1`, the Efficacy is reported as “Agonist”.
With `C=CCN1CCN(c2nc3cc(F)ccc3n3cccc23)CC1` the Efficacy was “Agonist”.
In the case of `CCCN1CCN(c2nc3cc(F)ccc3n3cccc23)CC1`, the Efficacy is reported as “Agonist”.
In the case of `C=CCN1CCN(c2nc3cccc(F)c3n3cccc23)CC1`, the Efficacy is reported as “Agonist”.

Organism: Rattus norvegicus
Assay: Inhibitory activity for 5-HT uptake was determined using [3H]- Citalopram
Type: functional
Settings: not given
`NCCc1c[nH]c2ccc(O)cc12` [SEROTONIN] showed an IC50 of 369 nM.

What follows are molecules tested against T2, Serotonin 3 (5-HT3) receptor (Rattus norvegicus) (assay: The stimulation of cardiac 5-HT3 receptors evaluated by using von Bezold-Jarisch reflex test in urethane-anesthetized rats; Partial agonist). Settings: filed as partial agonist.
Type: functional
With `CN1CCN(c2nc3c(F)cccc3n3cccc23)CC1` the Behavior was “Partial agonist”.
For `CCCN1CCN(c2nc3cccc(F)c3n3cccc23)CC1`, the Behavior was “Partial agonist”.
In the case of `C=CCN1CCN(c2nc3cccc(F)c3n3cccc23)CC1`, the Behavior is reported as “Partial agonist”.

These molecules were tested against T3, 5-hydroxytryptamine receptor 2C (Rattus norvegicus, UniProt P08909) (assay: Inhibition of radiolabeled [3H]-Ketanserin ligand binding to 5-hydroxytryptamine 2C receptor). Settings: not given.
T3 sequence (P08909 whole entry): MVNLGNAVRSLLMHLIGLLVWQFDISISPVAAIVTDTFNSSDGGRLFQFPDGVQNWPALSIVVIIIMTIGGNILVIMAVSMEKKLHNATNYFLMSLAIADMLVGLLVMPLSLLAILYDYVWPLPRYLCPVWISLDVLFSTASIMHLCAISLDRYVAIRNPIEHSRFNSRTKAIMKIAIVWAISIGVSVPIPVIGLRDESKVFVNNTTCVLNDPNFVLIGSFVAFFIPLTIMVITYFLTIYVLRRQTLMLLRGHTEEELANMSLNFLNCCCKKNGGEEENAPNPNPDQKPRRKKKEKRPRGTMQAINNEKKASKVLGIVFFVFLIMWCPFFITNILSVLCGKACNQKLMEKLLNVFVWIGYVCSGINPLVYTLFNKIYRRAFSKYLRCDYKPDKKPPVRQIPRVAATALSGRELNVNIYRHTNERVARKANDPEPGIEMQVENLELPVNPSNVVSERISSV
For `CCC(CC)NC(=O)[C@@H]1C=C2c3cccc4c3c(cn4C)C[C@H]2N(C)C1` [METHSERGIDE], the IC50 was 3.1 nM.
